Patent EP4537820A1, “COMPOUND AND COMBINATIONS COMPRISING SAID COMPOUND TO IMPROVE IMMUNE RESPONSE” (Institut Gustave-Roussy, priority 2023, dated 2025)

Key:
20S-REGγ proteasome = biological target: T1, 20S-REGγ proteasome (Homo sapiens, UniProt P61289); test: Proteasome Activity Assay with fluorogenic AMC substrates, in presence of REGγ; assay type: biochemical; conditions: 0.5nM human 20S + 12.5nM human REGγ
T1 construct: made in house
Experimental: (§1) Proteasome Activity Assay - The activity of the 20S and 20S-REGγ proteasomes was followed by fluorescence using the Bz-VGR-AMC (#BML-BW9375-0005, Enzo Life Sciences) substrate at 50µM for tryspin-like activity, the Suc-LLVY-AMC (#BML-P802-0005, Enzo Life Sciences) substrate at 100µM for the chemotrypsin-like activity and the Z-LLE-AMC (#BML-ZW9345-0005, Enzo Life Sciences) substrate at 100µM for the caspase-like activity. Substrates were incubated with 0,5nM of human 20S ((#E-360-050, Biotechne) and 12,5nM of human REGγ or 2nM of human REGαβ with or without compounds at different concentrations. Purified human REGγ and REGGαβ were generously provided by Julien Marcoux and Marie-Pierre Bousquet-Dubouch. Human REGγ and REGαβ were purified according to Le Feuvre et al., 2009 from plasmids kindly provided by Olivier Coux. The activity assay was performed in 96 well plates in a final volume of 80µL. Plates were read every minute for 90 minutes with a FLUOstar plate reader (BMG Labtech). To detect fluorescence, the excitation wavelength was set to 355nm and emission wavelength at 460nm.
The activity of the 20S and 20S-REGγ proteasomes was followed by fluorescence using the Bz-VGR-AMC (#BML-BW9375-0005, Enzo Life Sciences) substrate at 50µM for trypsin-like activity, the Suc-LLVY-AMC (#BML-P802-0005, Enzo Life Sciences) substrate at 100µM for the chemotrypsin-like activity and the Z-LLE-AMC (#BML-ZW9345-0005, Enzo Life Sciences) substrate at 100µM for the caspase-like activity. […]

20S proteasome = tested on: T2, 20S proteasome; test: Proteasome Activity Assay with fluorogenic AMC substrates, without REGγ; assay type: biochemical, human; conditions: 20S proteasome not in the presence of REGγ, even at high doses
T2 construct: purified 20S proteasome from human erythrocytes; purchased Biotechne E-360-050; host or cells: human erythrocytes
Experimental: as §1, with “460nm. […]” for “460nm.”

REGγ = REGγ (Homo sapiens, UniProt P61289); test: Thermal Shift Assay (nanoDSF) with REGγ; assay type: binding; conditions: REGγ 500nM, compound at 40X (20µM, 0,4% DMSO)
REGγ, sequence (P61289 whole entry): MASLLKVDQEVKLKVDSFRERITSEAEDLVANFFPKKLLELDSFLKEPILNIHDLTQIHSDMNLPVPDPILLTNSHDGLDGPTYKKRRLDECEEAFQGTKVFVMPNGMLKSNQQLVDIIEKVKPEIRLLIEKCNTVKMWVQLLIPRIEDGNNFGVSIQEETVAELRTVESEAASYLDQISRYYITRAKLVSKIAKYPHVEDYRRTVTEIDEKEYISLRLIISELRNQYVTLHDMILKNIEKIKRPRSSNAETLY
Experimental: Thermal shift assay was carried out with nano differential scanning fluorimetry (nanoDSF) using the Tycho NT.6 from Nanotemper and was performed at the I2BC platform (Gif-sur-Yvette). Samples were prepared in a final volume of 25µL in a 96-well plate prior to be loaded on the Tycho capillaries. Proteins were diluted in activity buffer (20mM Tris-HCl pH 7.4 and 20mM NaCl). After optimisation, REGγ concentration was set to 500nM and 20S concentration to 50nM. Compounds concentrations were determined as ratios to protein concentration and to stay below 0,5% of DMSO; accordingly, compounds with REGγ were tested at 40X (20µM, 0,4% DMSO) and at 100X (5µM, 0,1% DMSO) with 20S. A thermal ramp was applied from 20 to 95°C and fluorescence was followed at 350nm and 330 nm, measuring intrinsic fluorescence of the proteins from tryptophan and tyrosine residues. Binding was detected as a shift in the inflection temperature (Ti) compared to the DMSO control.
To assess the efficacy of molecule 58 in directly binding to REGγ, inventors conducted a thermal shift assay (TSA). TSA leverages the property of proteins to undergo unfolding at specific temperatures, and the interaction with a ligand can alter the thermal stability, leading to a shift in the unfolding temperature. In their study, inventors examined how the compound 58 interacted with REGγ and monitored the change in melting temperature (ΔTm).

A375 REGγ KO cells = test: MTT assay; assay type: cell-based; conditions: Homo sapiens, A-375, 24-hour treatment, read-out: IC50 (cell viability)
Experimental: (§2) 2,5×10^4 of MCA cells or 5×10^4 of MCA c13 cells were plated in quadruplicates in clear 96-well plates and incubated overnight. The next day, cells were with various concentration of the tested compounds for 24h. After treatment, media was carefully removed before adding 50µL of new media and 10µL of tetrazolium salt solution (5mg/mL in PBS) and homogeneizing the well by pipetting up and down. The plate was then incubated for 2 hours at 37°C. After incubation, plate was centrifuged 5min at 1500rpm before adding 150µL of DMSO to each well to solubilize the formazan cristals. The plate was incubated on agitation for 10min and absorbance was read at 544nm using a EL808 (Biotek) plate reader.
(§3) To assess the efficacy of compound 58 against tumor cell lines, inventors initially aimed to determine its IC50 values in both mouse and human cell lines. They utilized an MTT assay to ascertain these values for mouse MCA fibrosarcoma and human A375 melanoma cell lines. Specifically, they treated 2.5 × 10^4 MCA WT or MCA REGγ KO cells and 5 × 10^4 human A375 WT or A375 REGγ KO cells with varying concentrations of compound 58 for a 24-hour duration.

[1] = tested on: A375 WT cells (A375 melanoma); test: MTT assay; assay type: cell-based; conditions: Homo sapiens, A-375, 24-hour treatment, read-out: IC50 (cell viability)
Experimental: as §2, §3

MCA REGγ KO cells = test: MTT assay; assay type: cell-based; conditions: Mus musculus, 24-hour treatment, read-out: IC50 (cell viability)
Experimental: as §2, §3

[2] = tested on: MCA WT cells (MCA fibrosarcoma); test: MTT assay; assay type: cell-based; conditions: Mus musculus, 24-hour treatment, read-out: IC50 (cell viability)
Experimental: as §2, §3

T1 sequence (P61289 whole entry): as above

concentration at which inhibition of trypsin-like activity starts (20S-REGγ proteasome; Bz-VGR-AMC 50µM, stronger effect at 100 µM): 50 µM | concentration at which chymotrypsin-like activity is inhibited (20S-REGγ proteasome; Suc-LLVY-AMC 100µM, inhibited only at this concentration): 100 µM | concentration at which inhibition of caspase-like activity starts (20S-REGγ proteasome; Z-LLE-AMC 100µM, stronger effect at 100 µM): 50 µM | inhibitory effect on the three activities (trypsin-like, caspase-like, chymotrypsin-like) (20S proteasome): did not exhibit any inhibitory effect | change in melting temperature (ΔTm) (REGγ): substantial increase in ΔTm | IC50 (A375 REGγ KO cells): 486 µM | IC50 [1]: 150 µM | IC50 [2]: 39.1 µM
Compound: Cc1ccc(N=Nc2ccc(C)cc2NC(=O)Nc2ccccc2F)cc1 [compound 58]
IC50 (MCA REGγ KO cells): 99.6 µM
